Consider one molecule from article PMC11768629, “Potential Interaction of Pinocembrin with Drug Transporters and Hepatic Drug-Metabolizing Enzymes” (Pharmaceuticals, 2025).

For one data set, the target named is T1, hOAT1 (Homo sapiens, UniProt Q4U2R8).
T1 construct: host or cells: MDCK
T1 sequence (Q4U2R8 1-563): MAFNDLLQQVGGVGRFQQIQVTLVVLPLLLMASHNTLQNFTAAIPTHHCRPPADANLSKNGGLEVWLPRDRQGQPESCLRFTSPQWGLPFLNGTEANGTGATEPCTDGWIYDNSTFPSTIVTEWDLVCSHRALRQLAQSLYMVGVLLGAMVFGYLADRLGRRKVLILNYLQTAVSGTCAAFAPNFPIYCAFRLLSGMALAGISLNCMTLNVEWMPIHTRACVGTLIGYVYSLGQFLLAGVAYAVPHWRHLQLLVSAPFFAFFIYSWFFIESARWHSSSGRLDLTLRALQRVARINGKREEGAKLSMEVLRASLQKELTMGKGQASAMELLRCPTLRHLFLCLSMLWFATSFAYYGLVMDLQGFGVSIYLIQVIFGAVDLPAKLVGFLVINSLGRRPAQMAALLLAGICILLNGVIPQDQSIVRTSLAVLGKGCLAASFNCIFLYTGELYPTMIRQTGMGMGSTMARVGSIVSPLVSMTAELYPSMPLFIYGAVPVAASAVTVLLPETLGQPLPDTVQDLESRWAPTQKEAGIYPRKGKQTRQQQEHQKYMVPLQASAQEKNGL
In words: hOAT1-mediated 6-CF uptake in hOAT1-MDCK cells (inhibitory potency and kinetics). Type of data set: cell-based. How it is done:
To determine the inhibitory potency of pinocembrin on the hOAT1 and hOAT3 function, the IC50 of pinocembrin on the hOAT1- and hOAT3-mediated uptake of 6-carboxyfluorescein (6-CF), a fluorescent substrate of hOAT1 and hOAT3, was determined. […] Next, the inhibitory mechanism of pinocembrin was determined using a kinetic study.
The hOAT1-MDCK and hOAT3-MDCK cell monolayers were incubated at 37 °C with an uptake buffer containing 6-CF (10 µM), a fluorescent substrate of hOAT1 and hOAT3 [12], and pinocembrin (0–50 µM) for 10 min. Uptake was terminated by removing the uptake solution and washing four times with a cold buffer. The cell monolayers were lysed with 0.4 N NaOH for 30 min. The samples were transferred to 96-black well plates to measure the fluorescence intensity using a fluorescent plate reader (EnVision XCite 2105 Multimode Plate Reader, Packard BioScience, Wellesley, MA, USA) at excitation and emission wavelengths of 490 and 510, respectively. The IC50 of pinocembrin on hOAT1- and hOAT3-mediated 6-CF uptake was calculated in GraphPad Prism using sigmoidal concentration–response analysis using the equation Y = 100/(IC50/X)^HillSlope (X is the concentration, while Y is the normalized response). In addition, the estimated inhibitory constant (Ki) was calculated using the Cheng–Prusoff equation.
The hOAT1-MDCK and hOAT3-MDCK cell monolayers were incubated with 6-CF at increasing concentrations (0 to 100 µM) and in the absence or presence of 5 µM pinocembrin for 10 min. The kinetic parameters of 6-CF transport by hOAT1 and hOAT3 in the presence of pinocembrin were determined using nonlinear regression analysis to fit the Michaelis–Menten kinetic equation: V=Vmax[S]/Km+[S] where V is the rate of 6-CF transport, Vmax is the maximum rate of 6-CF transport, Km is the 6-CF concentration that results in half the maximum transport (Michaelis–Menten constant), and [S] is the concentration of 6-CF in the transport reaction.

Another data set relates to OATP1A2. More on the design: method as in PMID 28745105. Conditions: transfected renal cells; cited from earlier work.
Another data set concerns the target T2, BCRP (Homo sapiens, UniProt Q9UNQ0).
T2 construct: Caco-2 cell monolayers, which express both P-gp and BCRP; host or cells: Caco-2
In words: BCRP-mediated 3H-estrone sulfate transepithelial transport in Caco-2 cell monolayers. Type of data set: cell-based. Particulars: pinocembrin, compared with vehicle control.

Molecules are shown by their SMILES.

T2 sequence (Q9UNQ0 whole entry): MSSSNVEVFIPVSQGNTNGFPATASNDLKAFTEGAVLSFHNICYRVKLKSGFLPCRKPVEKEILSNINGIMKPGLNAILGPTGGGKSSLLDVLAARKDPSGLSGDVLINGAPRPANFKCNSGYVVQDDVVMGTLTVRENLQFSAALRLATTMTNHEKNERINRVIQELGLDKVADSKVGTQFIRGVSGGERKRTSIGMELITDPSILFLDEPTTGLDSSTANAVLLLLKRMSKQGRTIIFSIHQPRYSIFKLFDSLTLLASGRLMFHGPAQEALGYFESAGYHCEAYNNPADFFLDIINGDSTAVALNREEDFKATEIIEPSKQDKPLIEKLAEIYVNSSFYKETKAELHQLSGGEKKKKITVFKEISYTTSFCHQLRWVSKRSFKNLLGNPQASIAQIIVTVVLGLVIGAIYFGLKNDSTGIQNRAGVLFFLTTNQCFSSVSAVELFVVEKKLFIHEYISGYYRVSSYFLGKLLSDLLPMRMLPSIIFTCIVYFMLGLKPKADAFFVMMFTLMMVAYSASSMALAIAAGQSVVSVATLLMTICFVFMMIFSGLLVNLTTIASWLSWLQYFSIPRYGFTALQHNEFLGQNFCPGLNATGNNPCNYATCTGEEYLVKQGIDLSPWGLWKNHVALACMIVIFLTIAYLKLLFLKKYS
Protocol for BCRP: The interactions of pinocembrin with P-gp and BCRP were determined by the measurement of P-gp-mediated ^3H-digoxin transport and BCRP-mediated ^3H-estrone sulfate transport in Caco-2 cell monolayers, which express both P-gp and BCRP [20].
P-gp- and BCRP-mediated transport were measured by the transepithelial transport of their substrates (^3H-digoxin for P-gp and ^3H-estrone sulfate for BCRP) in Caco-2 cell monolayers. […] Caco-2 cells were cultured on membrane inserts (Corning Inc., Corning, NY, USA) for 21 days. Cell monolayers showing transepithelial electrical resistance values > 600 Ω.cm^2 were included in the experiment. […] The basolateral side was replaced with a transport buffer. The sample from the basolateral side was transferred to vials containing a liquid scintillation cocktail to measure radioactivity by a β-counter (Packard BioScience, Wellesley, MA, USA).

Regarding `O=C1C[C@@H](c2ccccc2)Oc2cc(O)cc(O)c21` [pinocembrin], the “Vmax of hOAT1-mediated 6-CF uptake, With Pinocembrin” value at hOAT1 (5 μM pinocembrin, 6-CF up to 100 μM, hOAT1-MDCK cells) is 6.03 ± 1.02 nmol/min/cm^2. The molecule also came in with an IC50 against hOAT1 (hOAT1-MDCK cells, 6-CF 10 µM, mean ± S.D., three experiments) of 1470 ± 870 nM. Moreover, the Ki at hOAT1 (hOAT1-MDCK cells, estimated with the Cheng–Prusoff equation) is 810 ± 120 nM. Further, the “inhibitory mechanism on hOAT1 transport function” value at hOAT1 (kinetic study, 5 μM pinocembrin: Km increased, Vmax unchanged) was “competitively”. The “effect on OATP1A2 function” value with OATP1A2 is “weakly inhibits”. Also, on BCRP, the “transport of 3H-estrone sulfate from the apical to basolateral side” value is reported as “did not affect”.
